According to patent US9586961B2, “Homopiperazine derivatives as protein tyrosine kinase inhibitors and pharmaceutical use thereof” (LEO PHARMA A/S, priority 2010, dated 2017):
pEC50: −log10 of the molar value.

Assays:
Assay type in all cases: biochemical
JAK1 = biological target: T1, JAK1 (Homo sapiens, UniProt P23458); assay: JAK1 kinase assay (HTRF, inhibition of phosphorylation of a synthetic peptide); details: catalytic domain aa 850-1154, GST-tag; 7 μM ATP (Km); read-out: JAK1 kinase inhibitory activity (EC50)
T1 construct: JAK1 (aa 850-1154) and TYK2 (aa 871-1187) are expressed with an N-terminally fused GST-tag; GST (N); purchased Carna Biosciences, Inc; host or cells: baculovirus expression system
T1 sequence (P23458 850-1154): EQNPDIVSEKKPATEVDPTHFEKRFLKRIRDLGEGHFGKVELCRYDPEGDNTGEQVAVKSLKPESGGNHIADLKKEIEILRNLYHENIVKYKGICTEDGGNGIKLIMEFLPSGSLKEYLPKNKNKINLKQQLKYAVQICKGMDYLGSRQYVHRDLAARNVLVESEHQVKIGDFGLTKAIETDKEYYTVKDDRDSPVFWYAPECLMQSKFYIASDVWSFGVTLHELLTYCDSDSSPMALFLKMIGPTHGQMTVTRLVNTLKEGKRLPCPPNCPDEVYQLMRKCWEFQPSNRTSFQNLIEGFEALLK
Procedure, shortened: (§1)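 HTRF detection (streptavidin-XL665, cryptate anti-phospho antibody, overnight in the dark) after EDTA stop of a 20-30 min RT reaction on 1 μM TK substrate-biotin. Km-level ATP per kinase: 7 μM for JAK1 and 13 μM for TYK2, both N-terminal GST, with 50 nM SEB; 4 μM for JAK2 and 2 μM for JAK3, both His-tagged. Catalytic domains only; DMSO 0.75%.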

JAK2 = biological target: T2, JAK2 (Homo sapiens, UniProt O60674); assay: JAK2 kinase assay (HTRF, inhibition of phosphorylation of a synthetic peptide); details: catalytic domain, His-tag; 4 μM ATP (Km); read-out: JAK2 kinase inhibitory activity (EC50)
T2 construct: All four purified enzymes contain only the catalytic domain; His (N); purchased Carna Biosciences, Inc; host or cells: baculovirus expression system
T2 sequence (O60674 849-1124 limits assumed): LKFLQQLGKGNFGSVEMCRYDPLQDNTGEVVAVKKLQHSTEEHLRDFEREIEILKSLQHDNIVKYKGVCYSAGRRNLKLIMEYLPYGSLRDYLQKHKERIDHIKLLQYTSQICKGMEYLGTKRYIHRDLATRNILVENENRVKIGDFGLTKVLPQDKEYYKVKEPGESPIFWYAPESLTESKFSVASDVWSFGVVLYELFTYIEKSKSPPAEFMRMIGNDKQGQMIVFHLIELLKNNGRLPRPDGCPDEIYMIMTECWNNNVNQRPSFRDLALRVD
Procedure, shortened: as §1

JAK3 = biological target: T3, JAK3 (Homo sapiens, UniProt P52333); assay: JAK3 kinase assay (HTRF, inhibition of phosphorylation of a synthetic peptide); details: catalytic domain, His-tag; 2 μM ATP (Km); read-out: JAK3 kinase inhibitory activity (EC50)
T3 construct: All four purified enzymes contain only the catalytic domain; His (N); purchased Carna Biosciences, Inc; host or cells: baculovirus expression system
T3 sequence (P52333 822-1111 limits assumed): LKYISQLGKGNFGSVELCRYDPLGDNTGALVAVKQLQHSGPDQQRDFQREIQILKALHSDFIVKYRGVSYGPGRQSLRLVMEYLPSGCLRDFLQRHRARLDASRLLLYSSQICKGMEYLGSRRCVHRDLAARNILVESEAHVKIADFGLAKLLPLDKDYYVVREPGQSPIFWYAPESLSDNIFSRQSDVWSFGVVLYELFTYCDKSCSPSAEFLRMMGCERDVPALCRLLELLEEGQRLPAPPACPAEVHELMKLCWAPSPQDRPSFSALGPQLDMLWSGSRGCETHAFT
Procedure, shortened: as §1

TYK2 = biological target: T4, TYK2 (Homo sapiens, UniProt P29597); assay: TYK2 kinase assay (HTRF, inhibition of phosphorylation of a synthetic peptide); details: catalytic domain aa 871-1187, GST-tag; 13 μM ATP (Km); read-out: TYK2 kinase inhibitory activity (EC50)
T4 construct: JAK1 (aa 850-1154) and TYK2 (aa 871-1187) are expressed with an N-terminally fused GST-tag; GST (N); purchased Carna Biosciences, Inc; host or cells: baculovirus expression system
T4 sequence (P29597 871-1187): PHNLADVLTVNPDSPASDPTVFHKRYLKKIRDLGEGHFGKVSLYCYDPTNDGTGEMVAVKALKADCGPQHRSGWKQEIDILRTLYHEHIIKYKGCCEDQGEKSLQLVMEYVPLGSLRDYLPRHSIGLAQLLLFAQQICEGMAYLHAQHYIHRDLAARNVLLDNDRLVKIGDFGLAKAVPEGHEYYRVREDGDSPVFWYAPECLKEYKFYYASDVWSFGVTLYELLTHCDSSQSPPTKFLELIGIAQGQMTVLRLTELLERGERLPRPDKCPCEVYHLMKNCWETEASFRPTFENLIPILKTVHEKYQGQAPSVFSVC
Procedure: JAK1, JAK2, JAK3 and TYK2 Kinase Assays:
Human baculovirus-expressed JAK1, 2, 3 and TYK2 were purchased from Carna Biosciences, Inc. All four purified enzymes contain only the catalytic domain. JAK1 (aa 850-1154) and TYK2 (aa 871-1187) are expressed with an N-terminally fused GST-tag, and JAK2 and JAK3 with an N-terminally fused His-tag. Inhibition of phosphorylation of a synthetic peptide was measured in an HTRF-based assay using the TK substrate-Biotin from the CisbioHTRFKinEASE TK kit. First, 2 μl of TK solution (TK substrate-biotin in kinase buffer [1× enzymatic buffer from HTRFKinEASE TK kit, 1 mM DTT]) is added to a plate containing 1 μl prediluted compound (final assay concentration DMSO: 0.75%). Then, 5 μl kinase-ATP mix (prepared in kinase buffer) is added to the wells and the plates are incubated at RT for 20-30 min. For all four kinases a concentration of ATP that corresponded to the Km for ATP was used. The final concentrations of buffers, substrate, kinase and ATP were: JAK1: 50 mMHepes buffer pH 7.0, 0.01% BSA, 10 mM MgCl2, 1 mM DTT, 7 μM ATP, 50 nMSEB, 1 μM TK Substrate-Biotin and 5 ng JAK1; JAK2: 50 mM Hepes buffer pH 7.0, 0.01% BSA, 5 mM MgCl2, 1 mM DTT, 4 μM ATP, 1 μM TK Substrate-Biotin and 0.1 ng JAK2; JAK3: 50 mMHepes buffer pH 7.0, 0.01% BSA, 5 mM MgCl2, 1 mM DTT, 2 μM ATP, 1 μM TK Substrate-Biotin and 0.3 ng JAK3; TYK2: 50 mMHepes buffer pH 7.0, 0.01% BSA, 5 mM MgCl2, 1 mM DTT, 13 μM ATP, 50 nMSEB, 1 μM TK Substrate-Biotin and 0.8 ng TYK2. Thereafter, the kinase reaction is stopped by adding 4 μl detection mix (final concentrations: 50 mM Hepes buffer pH 7.0, 0.01% BSA, 0.8 M KF, 20 mM EDTA, 42 nM Streptavidin-XL665 and 1:400 STKAbCryptate) and the plates are incubated overnight in the dark. The HTRF signal is read using an Envision plate reader.

SMILES | pEC50 (JAK1) | pEC50 (JAK2) | pEC50 (JAK3) | pEC50 (TYK2)
Cc1cc(C(=O)N2CCN(c3ncnc4[nH]ccc34)CC3(CC3)C2)ccc1S(N)(=O)=O [Example 29, 2-methyl-4-[5-(7H-pyrrolo[2,3-d]pyrimidin-4-yl)-5,8-diazaspiro[2.6]nonane-8-carbonyl]benzenesulfonamide] | 6.00 to 7.00 | 6.00 to 7.00 | 6.00 to 7.00 | < 6.00
Cn1cc(S(N)(=O)=O)cc1C(=O)N1CCN(c2ncnc3[nH]ccc23)CC2(CC2)C1 [Example 36, 1-methyl-5-[5-(7H-pyrrolo[2,3-d]pyrimidin-4-yl)-5,8-diazaspiro[2.6]nonane-8-carbonyl]pyrrole-3-sulfonamide] | 6.00 to 7.00 | 6.00 to 7.00 | 6.00 to 7.00 | < 6.00
CN(CCC#N)S(=O)(=O)N1CCN(c2ncnc3[nH]ccc23)CC2(CC2)C1 [Example 103, N-(2-cyanoethyl)-N-methyl-5-(7H-pyrrolo[2,3-d]pyrimidin-4-yl)-5,8-diazaspiro[2.6]nonane-8-sulfonamide] | 6.00 to 7.00 | 6.00 to 7.00 | < 6.00 | < 6.00
N#CCCC(=O)N1CCN(c2ncnc3[nH]ccc23)CCC12CC2 [Example 49, 4-oxo-4-[6-(7H-pyrrolo[2,3-d]pyrimidin-4-yl)-6,9-diazaspiro[2.6]nonan-9-yl]butanenitrile] | 6.00 to 7.00 | 6.00 to 7.00 | 6.00 to 7.00 | < 6.00
COc1cccc(C(=O)N2CCN(c3ncnc4[nH]ccc34)CC3(CC3)C2)c1OC [Example 2, (2,3-Dimethoxyphenyl)-[8-(7H-pyrrolo[2,3-d]pyrimidin-4-yl)5,8-diazaspiro[2.6]non-5-yl]methanone] | < 6.00 | < 6.00 | < 6.00 | < 6.00
O=C(Cc1cscn1)N1CCN(c2ncnc3[nH]ccc23)CC2(CC2)C1 [Example 88, 1-[5-(7H-pyrrolo[2,3-d]pyrimidin-4-yl)-5,8-diazaspiro[2.6]nonan-8-yl]-2-thiazol-4-yl-ethanone] | 6.00 to 7.00 | 6.00 to 7.00 | 6.00 to 7.00 | –
O=C(c1ccccc1Cl)N1CCCN(c2ncnc3[nH]ccc23)CC12CC2 [Example 178, (2-chlorophenyl)-[5-(7H-pyrrolo[2,3-d]pyrimidin-4-yl)-5,9-diazaspiro[2.6]nonan-9-yl]methanone] | 6.00 to 7.00 | 6.00 to 7.00 | < 6.00 | –
Cc1sncc1C(=O)N1CCN(c2ncnc3[nH]ccc23)CC2(CC2)C1 [Example 229, (5-methylisothiazol-4-yl)-[5-(7H-pyrrolo[2,3-d]pyrimidin-4-yl)-5,8-diazaspiro[2.6]nonan-8-yl]methanone] | 6.00 to 7.00 | 6.00 to 7.00 | < 6.00 | –
CN(CCC#N)C(=O)N1CCN(c2ncnc3[nH]ccc23)CC2(CC2)C1 [Example 220, N-(2-cyanoethyl)-N-methyl-5-(7H-pyrrolo[2,3-d]pyrimidin-4-yl)-5,8-diazaspiro[2.6]nonane-8-carboxamide] | 6.00 to 7.00 | 6.00 to 7.00 | 6.00 to 7.00 | –
O=C(c1cc(O)[nH]n1)N1CCCN(c2ncnc3[nH]ccc23)CC12CC2 [Example 212, (5-hydroxy-1H-pyrazol-3-yl)-[5-(7H-pyrrolo[2,3-d]pyrimidin-4-yl)-5,9-diazaspiro[2.6]nonan-9-yl]methanone] | 6.00 to 7.00 | 6.00 to 7.00 | 6.00 to 7.00 | –
O=C(c1ccccc1F)N1CCN(c2ncnc3[nH]ccc23)CC2(CC2)C1 [Example 111, (2-fluorophenyl)-[5-(7H-pyrrolo[2,3-d]pyrimidin-4-yl)-5,8-diazaspiro[2.6]nonan-8-yl]methanone] | 6.00 to 7.00 | > 7.00 | < 6.00 | –
N#Cc1cc(CC(=O)N2CCN(c3ncnc4[nH]ccc34)CC3(CC3)C2)ccc1F [Example 273, 2-fluoro-5-[2-oxo-2-[5-(7H-pyrrolo[2,3-d]pyrimidin-4-yl)-5,8-diazaspiro[2.6]nonan-8-yl]ethyl]benzonitrile] | 6.00 to 7.00 | > 7.00 | 6.00 to 7.00 | –
Cc1cc(CC(=O)N2CCN(c3ncnc4[nH]ccc34)CC3(CC3)C2)on1 [Example 184, 2-(3-methylisoxazol-5-yl)-1-[5-(7H-pyrrolo[2,3-d]pyrimidin-4-yl)-5,8-diazaspiro[2.6]nonan-8-yl]ethanone] | > 7.00 | > 7.00 | 6.00 to 7.00 | –

Results, then the compound that gave them:

pEC50 (JAK1) | pEC50 (JAK2) | pEC50 (JAK3) | pEC50 (TYK2) | SMILES
6.00 to 7.00 | 6.00 to 7.00 | 6.00 to 7.00 | < 6.00 | N#Cc1ccc(C(=O)N2CCN(c3ncnc4[nH]ccc34)CC3(CC3)C2)cc1 [Example 62, 4-[5-(7H-pyrrolo[2,3-d]pyrimidin-4-yl)-5,8-diazaspiro[2.6]nonane-8-carbonyl]benzonitrile]
6.00 to 7.00 | > 7.00 | 6.00 to 7.00 | < 6.00 | CNS(=O)(=O)c1ccc(C(=O)N2CCN(c3ncnc4[nH]ccc34)CC3(CC3)C2)cc1 [Example 72, N-methyl-4-[5-(7H-pyrrolo[2,3-d]pyrimidin-4-yl)-5,8-diazaspiro[2.6]nonane-8-carbonyl]benzenesulfonamide]
> 7.00 | > 7.00 | 6.00 to 7.00 | 6.00 to 7.00 | N#Cc1ccc(OCC(=O)N2CCN(c3ncnc4[nH]ccc34)CC3(CC3)C2)cc1 [Example 106, 4-[2-oxo-2-[5-(7H-pyrrolo[2,3-d]pyrimidin-4-yl)-5,8-diazaspiro[2.6]nonan-8-yl]ethoxy]benzonitrile]
6.00 to 7.00 | > 7.00 | 6.00 to 7.00 | < 6.00 | Cc1c(S(N)(=O)=O)csc1C(=O)N1CCN(c2ncnc3[nH]ccc23)CC2(CC2)C1 [Example 25, 4-methyl-5-[5-(7H-pyrrolo[2,3-d]pyrimidin-4-yl)-5,8-diazaspiro[2.6]nonane-8-carbonyl]thiophene-3-sulfonamide]
6.00 to 7.00 | 6.00 to 7.00 | 6.00 to 7.00 | – | Cc1nocc1C(=O)N1CCN(c2ncnc3[nH]ccc23)CC2(CC2)C1 [Example 244, (3-methylisoxazol-4-yl)-[5-(7H-pyrrolo[2,3-d]pyrimidin-4-yl)-5,8-diazaspiro[2.6]nonan-8-yl]methanone]
< 6.00 | 6.00 to 7.00 | < 6.00 | – | Cc1nocc1C(=O)N1CCCN(c2ncnc3[nH]ccc23)CC12CC2 [Example 245, (3-methylisoxazol-4-yl)-[5-(7H-pyrrolo[2,3-d]pyrimidin-4-yl)-5,9-diazaspiro[2.6]nonan-9-yl]methanone]
> 7.00 | > 7.00 | 6.00 to 7.00 | – | N#Cc1c[nH]c(C(=O)N2CCN(c3ncnc4[nH]ccc34)CC3(CC3)C2)c1 [Example 208, 5-[5-(7H-pyrrolo[2,3-d]pyrimidin-4-yl)-5,8-diazaspiro[2.6]nonane-8-carbonyl]-1H-pyrrole-3-carbonitrile]
< 6.00 | 6.00 to 7.00 | < 6.00 | – | O=C1OCCN1CC(=O)N1CCCN(c2ncnc3[nH]ccc23)CC12CC2 [Example 86, 3-[2-oxo-2-[5-(7H-pyrrolo[2,3-d]pyrimidin-4-yl)-5,9-diazaspiro[2.6]nonan-9-yl]ethyl]oxazolidin-2-one]
